Tests used:
Test in all cases: Fluorescence competition binding assay (displacement of DC271)
[1] = biological target: T1, RARγ (Homo sapiens, UniProt P13631); details: for Kd: 100 nM RAR and DC271 on plate, read-out: Binding KD (± SD) RARγ; for ΔGEXP RARγ: experimental binding free energy from K D, ΔGexp=−RT ln K, 298.1 K
T1 construct: His6-3C-SUMO (cleaved yes); made in house; host or cells: E. coli BL21(DE3), pOPINS3C vector
T1 sequence (P13631 185-419 limits assumed): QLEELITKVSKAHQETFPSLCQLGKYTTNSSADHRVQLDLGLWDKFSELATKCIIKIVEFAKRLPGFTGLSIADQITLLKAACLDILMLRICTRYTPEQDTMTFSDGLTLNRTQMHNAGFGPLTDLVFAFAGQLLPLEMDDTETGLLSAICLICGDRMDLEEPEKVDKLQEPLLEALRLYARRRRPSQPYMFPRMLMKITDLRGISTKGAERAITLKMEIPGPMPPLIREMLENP
Experimental: (§1) Fluorescence competition assays were employed to determine the relative binding affinities of each synthetic retinoid toward the LBD of the RARs. The assay is based on the potential for competitive displacement of the inherently fluorescent retinoid DC271 from the LBP by a test nonfluorescent synthetic retinoid. Changes in the fluorescence were measured following the addition of a serial dilution of the test compound and the results were plotted to generate a binding curve. […] Assays were performed for both RARα and RARγ. […] Nonlinear least-squares regression analyses were performed to calculate binding affinities and reported as binding K D, the equilibrium dissociation constant between the RAR isoform and the test synthetic retinoid.
(§2) RARα/γ proteins were expressed in BL21(DE3) cells (NEB) transformed into pET50b (Novagen) and pOPINS3C vectors, respectively, carrying the gene construct and containing a His6-3C-NusA tag or His6-3C-SUMO tag used for solubility. Transformations were carried out under standard conditions using Quick Transformation Protocol (New England Biolabs). Successful transformants were grown overnight in 2xYT media (Melford) and frozen for storage at −80 °C in 50% glycerol. Expression cultures were inoculated from glycerol stocks into 25 mL of 2xYT media (Melford) with 50 μg/mL kanamycin or 100 μg/mL ampicillin (Sigma-Aldrich) and grown overnight with shaking (37 °C, 150 rpm). The overnight cultures were transferred into 1 L expression flasks (2xYT/ampicillin 100 μg/mL or 2xYT/kanamycin 50 μg/mL) and grown with shaking at 37 °C, 150 rpm. Induction was carried out at an OD600 of 0.6–0.8, with 1 mL of 1 M IPTG (1 mM in culture), before shaking overnight (20 h) at 18 °C. The resulting cultures were spun down into pellets using an Avanti Hi-Speed centrifuge (JLA 8.1000, 4000 rpm, 30 min, 4 °C), before the supernatant was removed and the bacterial pellet were frozen at −80 °C.
(§3) RARα/γ (pET50b or pOPINS3C, BL21(DE3) (NEB)) were resuspended from pellet with 20 mL Wash Buffer (20 mM Tris-HCl, 300 mM NaCl and 20 mM imidazole, pH 8) and the resulting suspension was sonicated on ice (40% power, 2 min, repeated twice with 1 min rest in-between) before centrifuging (Avanti Hi-Speed JA25.50, 20,000 rpm, 1 h, 4 °C). Supernatants were clarified using 0.45 μm syringe filters (Thermo Fisher Scientific). Affinity chromatography and size-exclusion (SEC) chromatography were carried out on AKTA Pure25 (Cytiva). Supernatants were loaded onto the HisTrap HP column (5 mL, Cytiva) and washed using 25 mL of wash Buffer. The column was washed with Wash Buffer until UV trace returned to baseline, before RARα/γ was eluted using a gradient of Elution Buffer (20 mM Tris-HCl, 300 mM NaCl, 500 mM imidazole pH 8). The resulting protein-containing fractions were analyzed by SDS-PAGE (200 V, 30 min) using SurePAGE Bis-Tris 12% precast gels (Genscript). Protein concentrations were estimated using absorbance at 280 nm on a DS-11 spectrophotometer (Denovix) with calculated molecular weights and extinction coefficients (Expasy). RAR proteins were cleaved overnight from 3C-NusA tag or 3C-SUMO-His tag using 1 Unit/100 μg protein of HRV3C protease (Thermo Fisher Scientific) at 4 °C. Solution after digestion was loaded onto a HiLoad 16/600 Superdex 75 prep-grade column (Cytiva) and cleaved RARα/γ was separated from the tag based on molecular weight and eluted from the column using SEC Buffer (20 mM Tris-HCl, 300 mM NaCl and 0.5 mM TCEP, pH 8) into 2 mL fractions. The resulting protein fractions were analyzed by SDS PAGE (200 V, 30 min) using SurePAGE Bis-Tris 12% precast gels (Genscript), before being concentrated to 5 mg/mL using centrifugal concentrators (Sartorius) and frozen at −80 °C in small aliquots for use in binding assays.

[2] = system: RARα; set-up: species or system human; details: log-log plot of K D for RARα and RARγ
Experimental: as §1, §2, §3

[3] = biological target: T2, RARα (Homo sapiens, UniProt P10276); details: for Kd: 100 nM RAR and DC271 on plate, read-out: Binding KD (± SD) RARα; for ΔGEXP RARα: experimental binding free energy from K D, ΔGexp=−RT ln K, 298.1 K
T2 construct: His6-3C-NusA (cleaved yes); made in house; host or cells: E. coli BL21(DE3), pET50b vector
T2 sequence (P10276 183-417 limits assumed): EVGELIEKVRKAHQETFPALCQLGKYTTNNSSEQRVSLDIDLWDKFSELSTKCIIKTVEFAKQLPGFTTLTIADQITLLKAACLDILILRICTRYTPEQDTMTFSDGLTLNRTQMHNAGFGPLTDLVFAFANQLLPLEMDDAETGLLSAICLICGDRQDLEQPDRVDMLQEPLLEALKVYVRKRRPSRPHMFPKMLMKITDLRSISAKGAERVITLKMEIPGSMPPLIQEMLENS
Experimental: as §1, §2, §3

Chain of RARα (P10276 182-417): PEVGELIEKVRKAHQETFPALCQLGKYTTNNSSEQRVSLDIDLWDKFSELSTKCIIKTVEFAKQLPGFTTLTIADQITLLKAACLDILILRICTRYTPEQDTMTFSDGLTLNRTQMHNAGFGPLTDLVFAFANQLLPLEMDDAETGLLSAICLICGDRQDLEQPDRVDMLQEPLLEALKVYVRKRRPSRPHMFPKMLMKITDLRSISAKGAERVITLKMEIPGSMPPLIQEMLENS

SMILES | Kd [1] | ΔGEXP RARγ [1] | binding preference RARα versus RARγ (from K D) [2] | Kd [3] | ΔGEXP RARα [3]
COc1cc2c(cc1C#Cc1ccc(C(=O)O)cn1)C(C)(C)CCC2(C)C [Compound 27, 6-[2-(3-Methoxy-5,5,8,8-tetramethyl-5,6,7,8-tetrahydronaphthalen-2-yl)ethynyl]pyridine-3-carboxylic Acid] | 2.15 µM | -7.76 kcal/mol | close to the plotted line representing equal binding affinity for RARα and RARγ | 1.82 µM | -7.84 kcal/mol
Cc1cc2c(cc1C#Cc1ccc(C(=O)O)cc1F)C(C)(C)CCC2(C)C [Compound 18, 3-Fluoro-4-[2-(3,5,5,8,8-pentamethyl-5,6,7,8-tetrahydronaphthalen-2-yl)ethynyl]benzoic Acid] | 0.0186 µM | -10.6 kcal/mol | close to the plotted line representing equal binding affinity for RARα and RARγ | 0.0181 µM | -10.6 kcal/mol
CC1(C)CCC(C)(C)c2cc(C#Cc3ccc(C(=O)O)nc3)ccc21 [Compound 24, 5-[2-(5,5,8,8-Tetramethyl-5,6,7,8-tetrahydronaphthalen-2-yl)ethynyl]pyridine-2-carboxylic Acid] | 0.254 µM | -9.00 kcal/mol | bind RARα preferentially over RARγ | 0.0871 µM | -9.64 kcal/mol
COc1cc2c(cc1C#Cc1cc(F)c(C(=O)O)c(F)c1)C(C)(C)CCC2(C)C [Compound 22, 2,6-Difluoro-4-[2-(3-methoxy-5,5,8,8-tetramethyl-5,6,7,8-tetrahydronaphthalen-2-yl)ethynyl]benzoic Acid] | 0.355 µM | -8.81 kcal/mol | bind RARα preferentially over RARγ | 0.105 µM | -9.55 kcal/mol
Cc1cc2c(cc1C#Cc1ccc(C(=O)O)cn1)C(C)(C)CCC2(C)C [Compound 26, 6-[2-(3,5,5,8,8-Pentamethyl-5,6,7,8-tetrahydronaphthalen-2-yl)ethynyl]pyridine-3-carboxylic Acid] | 0.0905 µM | -9.61 kcal/mol | bind RARα preferentially over RARγ | 0.0483 µM | -10.0 kcal/mol
CC1(C)CCC(C)(C)c2cc(C#Cc3ccc(C(=O)O)c(F)c3)ccc21 [Compound 13, 2-Fluoro-4-[2-(5,5,8,8-tetramethyl-5,6,7,8-tetrahydronaphthalen-2-yl)ethynyl]benzoic Acid] | 0.0186 µM | -10.6 kcal/mol | close to the plotted line representing equal binding affinity for RARα and RARγ | 0.0136 µM | -10.8 kcal/mol
Cc1sc(-c2ccc(C(=O)O)c(F)c2)nc1-c1cnc2c(n1)C(C)(C)CCC2(C)C [Compound 42, 2-Fluoro-4-[5-methyl-4-(5,5,8,8-tetramethyl-5,6,7,8-tetrahydroquinoxalin-2-yl)-1,3-thiazol-2-yl]benzoic Acid] | 0.133 µM | -9.46 kcal/mol | close to the plotted line representing equal binding affinity for RARα and RARγ | 0.162 µM | -9.27 kcal/mol
Cc1cc2c(cc1C#Cc1ccc(C(=O)O)c(F)c1)C(C)(C)CCC2(C)C [Compound 17, 2-Fluoro-4-[2-(3,5,5,8,8-pentamethyl-5,6,7,8-tetrahydronaphthalen-2-yl)ethynyl]benzoic Acid] | 0.0206 µM | -10.5 kcal/mol | close to the plotted line representing equal binding affinity for RARα and RARγ | 0.0284 µM | -10.40 kcal/mol
